From patent US20260053778A1, “USE OF NOVEL PPAR ACTIVITY MODULATOR FOR PREVENTION, AMELIORATION OR TREATMENT OF DEGENERATIVE BRAIN DISEASES” (POSTECH RESEARCH AND BUSINESS DEVELOPMENT FOUNDATION, priority 2022, published 2026)

Assays:
[1] = Body weight and organ weight after 12 weeks of treatment; format: in vivo, mouse; settings: DTMB 10 mg/kg orally, 12 weeks (3 months), versus vehicle-treated mice
Description: 5×FAD (Tg6799) mice were purchased from Jackson Laboratory (Bar Harbor, ME, USA), and male transgenic mice were mated with B6/SJL hybrid female mice. Genotyping was performed by PCR analysis of tail-cut samples. In this example, 8-week-old female mice were used for drug administration, and wild-type littermates were used as controls. All procedures related to animal behavior experiments were approved by the Institutional Animal Care and Use Committee of Pohang University of Science and Technology (POSTECH IACUC). All animal experiments were performed in accordance with the principles of the Animal Welfare Act, the PHS Animal Welfare Policy, and the NIH Guide for the Care and Use of Laboratory Animals. All mice were maintained under general conditions in the POSTECH animal facility according to institutional guidelines.
To evaluate the effect of DTMB on 5×FAD mice, DTMB (10 mg/kg) and vehicle (1% carboxymethylcellulose and 10% DMSO) were orally administered to four groups (wild type, wild type+DTMB, 5×FAD, and 5×FAD+DTMB) 6 days per week for 3 months.

[2] = biological target: T1, HIS-tagged recombinant PPAR β/δ protein (Homo sapiens, UniProt Q03181); experiment: CNBr-drug and protein binding experiment, PPARβ/δ; settings: Western blotting after 24 h incubation
T1 sequence (Q03181 211-439 limits assumed): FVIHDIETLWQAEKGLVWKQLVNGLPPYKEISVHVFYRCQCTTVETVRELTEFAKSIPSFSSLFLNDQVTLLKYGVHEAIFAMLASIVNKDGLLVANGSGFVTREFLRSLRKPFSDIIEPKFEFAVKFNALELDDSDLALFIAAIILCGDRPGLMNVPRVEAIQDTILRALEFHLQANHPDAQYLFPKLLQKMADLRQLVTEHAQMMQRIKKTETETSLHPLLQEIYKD
Description: Since the computer prediction program predicted that DTMB binds to PPAR transcription factors, CNBr-drug and protein binding experiments were conducted to confirm whether DTMB actually binds to PPAR. To determine the actual degree of drug-protein binding, the reaction of the protein of the PPAR-α, β/δ, γ ligand-binding portion with the DTMB drug-bound CNBr beads was confirmed through Western blotting.
Specifically, CNBr Sepharose 4B beads were prepared and activated according to the instructions. 100 mg of CNBr-activated Sepharose 4B beads were incubated with drugs or DMSO at 4° C. for 18 h. The drug-bound beads reacted with HIS-tagged recombinant PPAR α, β/δ, and γ proteins. After 24 h of incubation, Western blotting experiments were performed to confirm whether the recombinant proteins bound to the drug-bound beads.

[3] = test system: 5×FAD Alzheimer's dementia-induced mice; experiment: Immunohistochemistry of gliosis (IBA-1, GFAP) in brain tissue; format: in vivo, mouse; settings: cerebral cortex and hippocampus, IBA-1 and GFAP staining, 5×FAD mice, DTMB 10 mg/kg orally
Description: The degree of gliosis was confirmed through immunochemical analysis using antibodies against IBA-1, a specific protein of microglia, and GFAP, a specific protein of astrocytes. Specifically, immunohistochemistry was performed in the same manner as in Example 6-1 using anti-Iba1 antibody (Wako, Japan, 1:200) and anti-GFAP antibody (Abcam, Cambridge, UK, 1:200) as primary antibodies.

PPARγ = biological target: T2, PPARγ (Homo sapiens, UniProt P37231); experiment: GAL4-transactivation assay in HEK293A cells, PPARγ; format: cell-based; settings: GAL4 reporter, 24 h, compared with rosiglitazone
T2 construct: expressed in transfected cells; host or cells: HEK293A
T2 sequence (P37231 1-505): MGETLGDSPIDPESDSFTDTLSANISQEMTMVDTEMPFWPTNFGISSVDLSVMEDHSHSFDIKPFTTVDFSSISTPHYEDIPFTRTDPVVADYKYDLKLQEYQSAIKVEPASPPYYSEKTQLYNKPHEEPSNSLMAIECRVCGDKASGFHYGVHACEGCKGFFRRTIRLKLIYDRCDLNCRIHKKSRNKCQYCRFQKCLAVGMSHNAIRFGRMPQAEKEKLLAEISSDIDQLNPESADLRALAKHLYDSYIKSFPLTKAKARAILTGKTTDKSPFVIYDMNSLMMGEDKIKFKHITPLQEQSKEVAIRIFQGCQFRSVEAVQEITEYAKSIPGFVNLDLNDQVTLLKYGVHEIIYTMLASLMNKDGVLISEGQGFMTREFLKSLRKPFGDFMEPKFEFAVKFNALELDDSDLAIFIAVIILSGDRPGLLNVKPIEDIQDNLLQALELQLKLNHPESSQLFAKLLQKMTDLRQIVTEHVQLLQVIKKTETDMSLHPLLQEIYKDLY
Description: A GAL4-transactivation assay experiment was performed to determine whether the drug was bound to the PPAR ligand binding site. HEK293A cells were transfected with GAL4-reporter plasmid and pGL4.74 (Promega, Madison, WI, USA) as an internal standard via electroporation using the Neon Transfection System (Invitrogen, Carlsbad, CA, USA). All vectors were kindly provided by Professor Kanno Yuichiro, Toho University, Japan. After overnight culture, cells were treated with DTMB and each positive control compound for 24 h. Cells were then harvested, resuspended in luciferase lysis buffer (Promega), and incubated on ice for 10 min. Cell debris was removed by centrifugation at 20,000×g, 4° C. for 10 min, and the supernatant was used for the luciferase assay. Luciferase activity was measured using the Dual Luciferase Reporter Assay System (Promega) according to the manufacturer's instructions. In the measurement experiment, firefly luciferase activity was normalized to Renilla luciferase activity. To investigate the concentration-dependent effect of DTMB drug, EC50 values were measured by treating various concentrations of DTMB.

Compound: COc1ccc(-c2cc(=O)oc3c(C)c(OC(=O)[C@H](Cc4c[nH]c5ccccc45)NC(=O)OC(C)(C)C)ccc23)cc1 [DTMB, [4-(4-Methoxyphenyl)-8-methyl-2-oxochromen-7-yl](2S)-3-(1H-indol-3-yl)-2-[(2-methylpropan-2-yl)oxycarbonylamino]propanoate]
- Body weight [1]: no change
- Tissue weight [1]: no change
- Binding of PPARβ/δ ligand-binding protein to drug-bound CNBr beads [2]: binds to all subtypes of PPAR
- Hyperactivity of microglia and astrocytes (gliosis) [3]: significantly reduced
- PPARγ activation versus positive control (PPARγ): activated at a slightly higher concentration than GW501516 and rosiglitazone, respectively
